Measured values reported in patent US9663496B2, “AMPK-activating heterocyclic compounds and methods for using the same” (Rigel Pharmaceuticals, Inc., priority 2010, dated 2017).

Biological target: AMPK
Assay: AMPK activation, enzyme-linked immunosorbent assay
Assay type: biochemical
Details: EC50 for AMPK activation, ELISA
Protocol: Compounds were assayed for their ability to activate AMPK using an enzyme-linked immunosorbent assay. Reagents and procedures for measuring AMPK activation are well known and kits for AMPK activation assays are commercially available.

Row | SMILES | EC50 [nM]
1 | CS(=O)(=O)c1ccc(C(=O)C2CCN(C(=O)c3ccc(C(=O)NC4CCN(Cc5ccc(N6CCCC6)cc5)CC4)cn3)CC2)cc1 [Compound 229, 6-(4-(4-(methylsulfonyl)benzoyl)piperidine-1-carbonyl)-N-(1-(4-(pyrrolidin-1-yl)benzyl)piperidin-4-yl)nicotinamide] | 1000 to 5000
2 | CC(C)S(=O)(=O)c1ccc(N2CCN(C(=O)c3ccc(C(=O)NC4CCN(Cc5ccc(C#N)cc5)CC4)nc3)CC2)cc1 [Compound 251, N-(1-(4-cyanobenzyl)piperidin-4-yl)-5-(4-(4-(isopropylsulfonyl)phenyl)piperazine-1-carbonyl)picolinamide] | < 500
3 | COc1ccc(C(=O)C2CCN(C(=O)c3ccc(C(=O)N[C@@H]4CCN(Cc5ccc(C#N)cc5)C[C@H]4F)cn3)CC2)cc1 [Compound 452, N-((3R,4R)-1-(4-cyanobenzyl)-3-fluoropiperidin-4-yl)-6-(4-(4-methoxybenzoyl)piperidine-1-carbonyl)nicotinamide] | < 500
4 | O=C(N[C@H]1CC[C@@H](Oc2ccc(F)cc2)CC1)c1ccc(C(=O)N2CCC(C(=O)c3ccc(F)cc3)CC2)cn1 [Compound 304, 5-(4-(4-fluorobenzoyl)piperidine-1-carbonyl)-N-((cis)-4-(4-fluorophenoxy)cyclohexyl)picolinamide] | < 500
5 | COc1ccc(O[C@H]2CC[C@@H](NC(=O)c3ccc(C(=O)N4CCC(Oc5ccc(C(F)(F)F)cc5)CC4)cn3)CC2)cc1 [Compound 185, N-((cis)-4-(4-methoxyphenoxy)cyclohexyl)-5-(4-(4-(trifluoromethyl)phenoxy)piperidine-1-carbonyl)picolinamide] | < 500
6 | N#Cc1ccc(CN2CCC(NC(=O)c3ccc(C(=O)N4CCN(C(=O)c5ccc(F)cc5)CC4)cn3)CC2)cc1 [Compound 76, N-(1-(4-cyanobenzyl)piperidin-4-yl)-5-(4-(4-fluorobenzoyl)piperazine-1-carbonyl)picolinamide] | < 500
7 | CN1CCN(c2ccc(C(=O)C3CCN(C(=O)c4ccc(C(=O)NC5CCN(Cc6ccc(OC(F)(F)F)cc6)CC5)cn4)CC3)cc2)CC1 [Compound 244, 6-(4-(4-(4-methylpiperazin-1-yl)benzoyl)piperidine-1-carbonyl)-N-(1-(4-(trifluoromethoxy)benzyl)piperidin-4-yl)nicotinamide] | 5000 to 10000
8 | Cc1nc(Oc2ccc(C#N)cc2)ccc1NC(=O)c1ccc(C(=O)N2CCC(C(=O)c3ccc(F)cc3F)CC2)nc1 [Compound 479, N-(6-(4-cyanophenoxy)-2-methylpyridin-3-yl)-6-(4-(2,4-difluorobenzoyl)piperidine-1-carbonyl)nicotinamide] | < 500
9 | N#Cc1ccc(OC2CCN(C(=O)c3ccc(C(=O)NC4CCN(Cc5ccc(N6CCOCC6)cc5)CC4)cn3)CC2)cc1 [Compound 337, 6-(4-(4-cyanophenoxy)piperidine-1-carbonyl)-N-(1-(4-morpholinobenzyl)piperidin-4-yl)nicotinamide] | < 500
10 | CC(C)(c1ccc(F)cc1)N1CCN(C(=O)c2ccc(C(=O)NC3CCN(Cc4ccc(C#N)cc4)CC3)nc2)CC1 [Compound 268, N-(1-(4-cyanobenzyl)piperidin-4-yl)-5-(4-(2-(4-fluorophenyl)propan-2-yl)piperazine-1-carbonyl)picolinamide] | < 500
11 | N#Cc1ccc(CN2CCC(NC(=O)c3ccc(C(=O)N4CCC(C(O)c5ccc(F)cc5)CC4)cn3)CC2)cc1 (stereo not drawn) [Compound 142, N-(1-(4-cyanobenzyl)piperidin-4-yl)-5-(4-((4-fluorophenyl)(hydroxy)methyl)piperidine-1-carbonyl)picolinamide] | < 500
12 | COc1ccc(CN2CCC(NC(=O)c3ccc(C(=O)N4CCC(C(=O)c5ccc(S(C)(=O)=O)cc5)CC4)cn3)CC2)cc1 [Compound 234, N-(1-(4-methoxybenzyl)piperidin-4-yl)-5-(4-(4-(methylsulfonyl)benzoyl)piperidine-1-carbonyl)picolinamide] | < 500
